In PubChem BioAssay (NCI):
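GI50 marks 50% less growth. TGI is the concentration that stops growth completely.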

Assays:
Assay in all cases: NCI anticancer screen, dose series, 384-well format
[1] = system: ACHN renal
[2] = system: CAKI-1 renal
[3] = system: HCT-116 colon
[4] = system: HOP-92 NSCLC
[5] = system: MALME-3M melanoma
[6] = system: MCF7 breast
[7] = system: MOLT-4 leukemia
[8] = system: NCI/ADR-RES ovarian
[9] = system: OVCAR-4 ovarian
[10] = system: OVCAR-8 ovarian
[11] = system: RPMI-8226 leukemia
[12] = system: SK-MEL-5 melanoma
[13] = system: T-47D breast

SMILES | GI50 [1] [nM] | TGI [1] [nM] | GI50 [2] [nM] | TGI [2] [nM] | GI50 [3] [nM] | TGI [3] [nM] | GI50 [4] [nM] | TGI [4] [nM] | GI50 [5] [nM] | TGI [5] [nM] | GI50 [6] [nM] | TGI [6] [nM] | GI50 [7] [nM] | TGI [7] [nM] | GI50 [8] [nM] | TGI [8] [nM] | GI50 [9] [nM] | TGI [9] [nM] | GI50 [10] [nM] | TGI [10] [nM] | other results
O=C(O)c1ccc(CN2CCC(CN[C@@H]3C[C@H]3c3ccccc3)CC2)cc1 | > 100000 | > 100000 | > 100000 | > 100000 | > 100000 | > 100000 | > 100000 | > 100000 | > 100000 | > 100000 | > 100000 | > 100000 | > 100000 | > 100000 | > 100000 | > 100000 | > 100000 | > 100000 | > 100000 | > 100000 | GI50 [11]: > 100000 nM; TGI [11]: > 100000 nM; GI50 [12]: > 100000 nM; TGI [12]: > 100000 nM; GI50 [13]: > 100000 nM; TGI [13]: > 100000 nM
Cc1cc2c(cc1C)NC1=C(N2)OC(c2c3ccccc3cc3ccccc23)C1=O (configuration not stated) | 546 | 13600 | 750 | 5690 | 286 | 759 | 398 | 1490 | 334 | 1100 | 397 | 1910 | 193 | 337 | 194 | 355 | 377 | 1970 | 290 | 794 | GI50 [11]: 223 nM; TGI [11]: 390 nM; GI50 [12]: 603 nM; TGI [12]: 1150 nM; GI50 [13]: 1070 nM; TGI [13]: 6250 nM
